Laboratory results reported in ChEMBL document CHEMBL1127902, “Synthesis of -estradiol-3-benzoate-17-(succinyl-12A-tetracycline): A potential bone-seeking estrogen” (Bioorg Med Chem Lett, 1994).

Test: Percent of compound bound to bone mineral hydroxylapatite was determined […]
Conditions: Bone element

| Compound | Binding |
| --- | --- |
| C[C@]12CC[C@@H]3c4ccc(O)cc4CC[C@H]3[C@@H]1CC[C@@H]2O | < 1% |
| C[C@]12CC[C@@H]3c4ccc(OC(=O)c5ccccc5)cc4CC[C@H]3[C@@H]1CC[C@@H]2O | < 1% |
| CN(C)[C@@H]1C(O)=C(C(N)=O)C(=O)[C@@]2(O)C(O)=C3C(=O)c4c(O)cccc4[C@@](C)(O)[C@H]3C[C@@H]12 | > 99% |
| CN(C)[C@@H]1C(=O)C(C(N)=O)=C(O)[C@@]2(OC(=O)CCC(=O)O[C@H]3CC[C@H]4[C@@H]5CCc6cc(OC(=O)c7ccccc7)ccc6[C@H]5CC[C@]34C)C(O)=C3C(=O)c4c(O)cccc4[C@@](C)(O)C3CC12 (some centres undefined) | > 99% |
